Patent US20100021989A1, “COMPOSITIONS AND METHODS OF CONTROLLING AND ADMINISTERING REDOX SPECIFIC FORMS OF DRUGS, FOODS AND DIETARY SUPPLEMENTS” (priority 2008, published 2010)

Legend:
[1] = Toxicity, Neutral Red Uptake; settings: host cells
Bcl-xL = Bcl-xL (Homo sapiens, UniProt Q07817); settings: Kitada et al., 2003; cited from earlier work
Vero cells = assay: Toxicity to Vero cells, Cell Titer 96 Aqueous Cell Proliferation Assay

Sequence of Bcl-xL (Q07817 whole entry): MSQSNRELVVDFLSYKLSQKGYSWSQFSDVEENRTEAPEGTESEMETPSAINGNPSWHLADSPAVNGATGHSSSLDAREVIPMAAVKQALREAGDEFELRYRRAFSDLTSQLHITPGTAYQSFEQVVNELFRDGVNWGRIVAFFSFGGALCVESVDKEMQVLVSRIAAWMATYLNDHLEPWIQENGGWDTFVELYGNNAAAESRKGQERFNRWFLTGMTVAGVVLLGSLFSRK

Nc1nc2c(ncn2COCCO)c(=O)[nH]1 [ACV]
CC50 [1]: > 100 µg/mL

O=C(O[C@@H]1Cc2c(O)cc(O)cc2O[C@H]1c1ccc(O)c(O)c1)c1cc(O)c(O)c(O)c1 [CG, catechin-3 gallate]
Ki (Bcl-xL): nanomolar range

O=C(O[C@@H]1Cc2c(O)cc(O)cc2O[C@H]1c1cc(O)c(O)c(O)c1)c1cc(O)c(O)c(O)c1 [GCG, gallocatechin-3 gallate]
Ki (Bcl-xL): nanomolar range

O=C(O[C@@H]1Cc2c(O)cc(O)cc2O[C@@H]1c1cc(O)c(O)c(O)c1)c1cc(O)c(O)c(O)c1 [Reduced EGCG]
Cell Titer 96 assay reading, mean ± SD (Vero cells; 50 μM, 24 hours after addition): 0.753 ± 0.027 | Cell Titer 96 assay reading, mean ± SD (Vero cells; 50 μM, 48 hours after addition): 0.750 ± 0.033 | Cell Titer 96 assay reading, mean ± SD (Vero cells; 75 μM, 24 hours after addition): 0.685 ± 0.052 | Cell Titer 96 assay reading, mean ± SD (Vero cells; 75 μM, 48 hours after addition): 0.706 ± 0.026 | Cell Titer 96 assay reading, mean ± SD (Vero cells; 100 μM, 24 hours after addition): 0.700 ± 0.043 | Cell Titer 96 assay reading, mean ± SD (Vero cells; 100 μM, 48 hours after addition): 0.705 ± 0.019

epicatechin-3 gallate [ECG]
Ki (Bcl-xL): nanomolar range
